Measured values: patent US20170202932A1, “METHODS FOR INHIBITING NEURON APOPTOSIS AND NECROSIS” (NEWSOUTH INNOVATIONS PTY LIMITED, priority 2012, published 2017)

Experiments:
[1] = target: T1, recombinant mouse TRPC3c channels (Mus musculus, UniProt Q9QZC1, DEL811-838); assay: Indo-1 ratiometric Ca2+ imaging of CCh-activated Ca2+ entry, HEK293 cells expressing TRPC3c; assay type: cell-based; conditions: genistein 200 μM pre-incubation, n=5, without genistein 575.6±44.2 nM
T1 construct: expressed in transfected cells; host or cells: HEK293 cells, stably transfected (pIRES-DsRed2 vector)
T1 sequence (Q9QZC1 with tags, fused parts or gaps DEL811-838): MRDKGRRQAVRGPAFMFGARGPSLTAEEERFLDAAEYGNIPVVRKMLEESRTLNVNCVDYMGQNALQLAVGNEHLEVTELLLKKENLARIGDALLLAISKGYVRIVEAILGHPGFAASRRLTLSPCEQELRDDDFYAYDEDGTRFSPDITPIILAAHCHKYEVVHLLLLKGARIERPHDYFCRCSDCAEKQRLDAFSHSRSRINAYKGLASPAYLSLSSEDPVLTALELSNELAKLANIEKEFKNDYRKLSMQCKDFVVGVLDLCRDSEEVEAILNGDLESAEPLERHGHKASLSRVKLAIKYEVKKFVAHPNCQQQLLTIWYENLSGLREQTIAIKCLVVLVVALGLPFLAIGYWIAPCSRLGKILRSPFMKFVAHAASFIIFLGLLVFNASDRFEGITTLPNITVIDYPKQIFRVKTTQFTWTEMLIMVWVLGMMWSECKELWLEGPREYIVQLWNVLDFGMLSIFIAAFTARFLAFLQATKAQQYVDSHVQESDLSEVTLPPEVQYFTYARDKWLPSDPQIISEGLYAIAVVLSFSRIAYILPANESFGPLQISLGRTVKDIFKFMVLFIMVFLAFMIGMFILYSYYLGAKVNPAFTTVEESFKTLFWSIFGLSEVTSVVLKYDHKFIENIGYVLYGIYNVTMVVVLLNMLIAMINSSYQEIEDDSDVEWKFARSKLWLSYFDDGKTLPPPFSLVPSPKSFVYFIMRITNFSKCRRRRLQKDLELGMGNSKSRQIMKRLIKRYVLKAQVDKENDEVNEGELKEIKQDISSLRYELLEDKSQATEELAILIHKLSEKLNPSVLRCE
Procedure: (§1) The TRPC3-mediated Ca^2+ entry through two distinct activation pathways was assessed by microfluorometric Ca^2+ imaging: i) Ca^2+ entry via the M3 receptor-PLCB-DAG pathway endogenous to HEK293 cells, using Indo-1 as a Ca^2+ indicator; and ii) Ca^2+ entry via mGluR1-PLCB-DAG through co-expression of the mGluR1, using Fluo-4 as a Ca^2+ indicator.
Cells were grown in DMEM media on 18 mm circular coverslips coated with poly-D-lysine (25 μg/ml) and collagen (25 μg/ml) at 1:1 ratio. The cells were washed with HPSS. The coverslips were then incubated with HPSS and 0.1% pluronic acid, along with either 1 μM Indo-1AM or Fluo-4AM Ca^2+ indicator (Invitrogen, U.S.A.) for an hour prior to the experiment. The cells were then placed into HPSS with 5 μM GdCl3 to block endogenous Ca^2+ entry (added to all superfusions). The M3 AChR-mediated TRPC3 activation was achieved by bath application of carbachol. The mGluR1-mediated TRPC3 activation was achieved by bath application of DHPG.
For Indo-1 experiments, the cells were mounted on a Nikon TMD inverted microscope fitted with an Indo-1 filter set (Nikon Indo-1 filter cube, 485 nm/DM455 nm/405 nm) and illuminated with a mercury lamp. Cells were excited at 350 nm, with dual emission of the field was detected at 410 nm and 480 nm using two photomultiplier tubes, and the ratioed emission was determined in real-time using in-house software. […]

[2] = target: T1, recombinant mouse TRPC3c channels; assay: Fluo-4 Ca2+ imaging of DHPG-activated Ca2+ entry, HEK293 cells co-expressing TRPC3c and mGluR1; assay type: cell-based; conditions: genistein 200 μM pre-application, n=6, without genistein 2.71±0.217
Procedure: as §1
Cells were grown in DMEM media on 18 mm circular coverslips coated with poly-D-lysine (25 μg/ml) and collagen (25 μg/ml) at 1:1 ratio. The cells were washed with HPSS. The coverslips were then incubated with HPSS and 0.1% pluronic acid, along with either 1 μM Indo-1AM or Fluo-4AM Ca^2+ indicator (Invitrogen, U.S.A.) for an hour prior to the experiment. […]
For Fluo-4 experiments, the cells were mounted on an inverted microscope (DMIL, Leica) with a 20× 0.4NA objective (Leica HCX PL Fluotar), and illuminated with a mercury lamp using a GFP filter (part no. 11504164; excitation 470/40 nm, dichroic 500 nm, emission 525/50 nm) every 5 seconds (Andor iXon+ 885 EMCCD Camera, Ireland) with a gated shutter (Ludl Electronic Products, U.S.A.), controlled via Andor IQ (v1.8.1) software. The images were then analysed using Image J software (NIH, U.S.A.) with individual regions of interest (ROIs) identified for HEK293 cells responding to M3 or mGluR1 agonists with increased Ca^2+ signal. […]

Question: How did the “peak [Ca2+] on return of extracellular Ca2+ (CCh-activated Ca2+ entry)” value [1] turn out when `O=c1c(-c2ccc(O)cc2)coc2cc(O)cc(O)c12` [genistein, 4′, 5,7-trihydroxyisoflavone] was run?
Answer: 81.9 ± 19.8 nM

Question: What about the “Fluo-4 fluorescence F/F0 (TRPC3-mediated Ca2+ entry after DHPG)” value [2] of the same compound?
Answer: 0.876±0.0621
